The results in this text go back to US3981868A.

For one assay, the system named is diastolic blood pressure. Kind of assay: hypotensive activity in anesthetized rats (minimal dose lowering diastolic blood pressure about 10 mm.). To be noted: Rattus norvegicus; intravenous; dose producing a decrease of about 10 mm. in diastolic blood pressure. It is filed as in vivo, Male Wistar strain rats. As to the method:
This procedure is a modification of the technique described by Pike et al., Prostaglandins, Nobel Symposium 2, Stockholm, June, 1966; p. 165.
Male Wistar strain rats (Royal Hart Farms) averaging approximately 250 grams in weight were fastened to rat boards in a supine position by means of canvas vests and limb ties. The femoral area was infiltrated subcutaneously with lidocaine and the iliac artery and vein were exposed and cannulated. Arterial blood pressure (systolic/diastolic) was recorded using a Statham P23 Db pressure transducer-Offner dynograph system. To obtain a stable blood pressure, the animals were anesthetized before use with pentobarbital, 30 mg./kg. of body weight intravenously, and also were given hexamethonium bitartrate, 2 mg./kg., of body weight intravenously. The test compounds were prepared by ultrasonic dispersion in a saline-Tween 80 vehicle. A constant intravenous dose volume of 0.5 ml. was administered and test doses ranged from 0.1 to 10.0 mg./kg. of body weight. Increasing or decreasing doses were selected depending on the dose response obtained. In Table I below are set forth the minimal doses required to produce a decrease of about 10 mm. in diastolic blood pressure for typical compounds of the present invention.

The test system of assay [1] is Microsporum canis ATCC 10214. Kind of assay: agar-dilution streak-plate antifungal assay (1). It is filed as cell-based. As to conditions: ATCC10214, read-out: Minimal inhibitory conc. Here is the method: (§1) The novel compounds of the present invention are also useful as antimicrobial agents. […] In this assay, the compounds to be tested are made up to contain 2.5 mg. of test compound per milliliter of solution. Observing sterile techniques, two-fold serial dilutions are made of each test solution. One milliliter of each of the original solutions and of each of the serial dilutions is then added to 9 ml. of warm sterile nutrient agar capable of supporting growth of the bacterial test cultures. A second set of agar dilutions is prepared identical to the first except that the nutrient agar is designed to support the growth of the fungal test cultures. […] The test bacteria and yeast-like fungi are prepared for use by growing in broth overnight. The spores of the filamentous fungi are harvested from mature agar slant cultures and are suspended in sterile physiological saline solution. A loopful of each of the resulting live suspensions is then, still employing sterile techniques, streaked upon the surfaces of each of the agar plates and the resulting streaked plates are then incubated. After an appropriate period of time, each of the streaks on each of the plates is inspected visually and the extent, if any, of bacterial or fungal growth is noted. The minimal inhibitory concentration (expressed in micrograms per milliliter) is defined as the concentration of test compound causing complete inhibition of growth of any particular organism. In a representative operation, and merely by way of illustration, the minimal inhibitory concentration of typical compounds of the present invention against a variety of test organisms as determined in the above-described assay are set forth in Tables II and III below: […]

Assay [2] has as its system Microsporum gypseum ATCC 14683. Kind of assay: agar-dilution streak-plate antifungal assay (2). The class given is cell-based. As to conditions: Nannizzia gypsea, ATCC14683, read-out: Minimal inhibitory conc. Here is the method: as §1
Assay [3] relates to Trichophyton tonsurans NIH 662. Kind of assay: agar-dilution streak-plate antifungal assay (3). The class given is cell-based. To be noted: NIH662, read-out: Minimal inhibitory conc. As to the method: as §1
Assay [4] deals with Trichophyton mentagrophytes E 11?
Kind of assay: agar-dilution streak-plate antifungal assay (4). To be noted: read-out: Minimal inhibitory conc. The class given is cell-based. As to the method: as §1

A further assay relates to Trichophyton rubrum E 97. Kind of assay: agar-dilution streak-plate antifungal assay (5). The class given is cell-based. As to conditions: E97, read-out: Minimal inhibitory conc. As to the method: as §1
The subject of assay [5] is Mycobacterium smegmatis ATCC 606. Kind of assay: agar-dilution streak-plate antibacterial assay (6). The class given is cell-based. As to conditions: Mycolicibacterium smegmatis, ATCC606, read-out: Minimal inhibitory conc. As to the method: as §1
For assay [6], the system named is Staphylococcus aureus Rose ATCC 14154. Kind of assay: agar-dilution streak-plate antibacterial assay (7). As to conditions: ATCC14154, read-out: Minimal inhibitory conc. The class given is cell-based. Here is the method:
as §1

Assay [7] has as its system Streptococcus pyogenes C 203. Kind of assay: agar-dilution streak-plate antibacterial assay (8). To be noted: C203, read-out: Minimal inhibitory conc. It is filed as cell-based. As to the method:
as §1

Another assay deals with gastric acid secretion. Kind of assay: inhibition of gastric acid secretion (pylorus-ligated rat, Shay rat). The class given is in vivo, rats (male, CFE strain). As to conditions: intraduodenal dose 100 mg./kg. body weight, 3 hours, 20% or more considered active. Here is the method:
The novel compounds of the present invention are also effective inhibitors of gastric acid secretion and of ulcer development in experimental animals, and thus are potentially valuable as agents for the control of gastric acid secretion and of gastric erosion and as anti-ulcer agents. Gastric acid secretion inhibitory action is usually measured by the "Shay rat" procedure ^(1,2) with some modifications as follows.
The rats (male, CFE strain) were starved for 48 hours (water was given ad libitum) to permit evacuation of stomach contents. On the morning of the experiment, under ether anesthesia, the abdominal region was shaved and a midline incision (1-11/2 inches) was made with a scalpel. With the help of a closed curved hemostat the duodenum was picked up. Upon getting the duodenum into view fingers were used to pull the stomach through the opening, the stomach was then gently manipulated with fingers to rid the stomach of air and residual matter which were pushed through the pylorus. Two 5-inch sutures were drawn under the pyloric-duodenal juncture. A ligature, at the juncture, was formed with one of the threads. The second ligature was also formed by not tightened.
The test compound or the vehicle, usually 1 ml./100 g. body weight, were injected into the duodenum as close as possible to the first ligature. After injection the second ligature was tightened below the injection site to minimize leakage. The stomach was placed back through the opening into the abdominal cavity, the area of incision was washed with saline and the incision was closed with autoclips. (Ocasionally, instead of an intraduodenal injection, animals were dosed by the oral or subcutaneous route. In the latter case, dosing was done thirty to sixty minutes before the operation).
The abdominal cavity was exposed by cutting with scissors and the esophagus close to the stomach was clamped off with a hemostat, the stomach was removed by cutting above the hemostat (the espohagus was cut) and between the two sutures. Extraneous tissue was removed, the stomach washed with saline and blotted on gauze. A slit was carefully made in the stomach which was held over a funnel and the contents were collected in a centrifuge tube. The stomach was further cut along the outside edge and turned inside out. Two ml. of water were used to wash the stomach contents into the respective centrifuge tube. The combined stomach contents and wash were then centrifuged out for 10 minutes in the International Size 2 Centrifuge (setting at 30). The supernatant was collected, volume measured and recorded, 2 drops of phenolphthalein indicator (1% in 95% ethanol) were added and the solution was titrated with 0.02N NaOH (or with 0.04N NaOH when large volumes of stomach contents were encountered) to pH 8.4 (because of usual coloring of the stomach contents, phenolphthalein was only used to permit visual indication that the end point was near) and the amount of acid present was calculated.
Compounds inducing inhibition of gastric acid secretion of 20% or more were considered active. In a representative operation, and merely by way of illustration, the results obtained with this assay with typical compounds of the present invention are given in Table IIIA.

Assay [8] concerns dl-PGE1-induced contraction of gerbil colon. Kind of assay: inhibition of dl-PGE1-induced contraction of gerbil colon. To be noted: sub-maximal challenge, 20 ng./ml. dl-PGE1; 50% inhibition of maximum response; approximate.
For assay [9], the system named is basal gastric acid secretion. Kind of assay: inhibition of basal gastric acid secretion (acute gastric fistula rat). The class given is in vivo, Female Sprague-Dawley rats. To be noted: 10 mg./kg. intraduodenal. As to the method:
Inhibition of basal gastric acid secretion was determined in the acute gastric fistula rat as follows. Female Sprague-Dawley rats (Charles River Laboratories) weighing 140-160 grams are fasted in individual cages for 18-24 hours. The rats are then lightly anesthetized with ether and their front teeth extracted to avoid destruction of the plastic cannula. A midline incision is then made and the stomach and duodenum exposed. A flanged polyvinyl tube is inserted into the fundic portion of the stomach and secured with a purse string suture line using 4-0 Mersilene. The rat is then dosed by injection of the compound into the duodenum (1.0 ml. per 100 grams body weight). After dosing, the abdominal wall and skin are closed using metal wound clips. The rat is replaced in a cage containing a longitudinal slit to allow the polyvinyl tube to hang freely. An 8 ml. plastic collecting tube is attached to the flanged cannula and hangs freely below the cage. The first 30 minute sample is discarded designating this time as zero. The collecting tube is attached again and samples removed at the end of 60 and 120 minutes. The hourly samples are then transferred to a 15 ml. centrifuge tube and centrifuged for 5-10 minutes. Total and sediment volume are then recorded with the supernatant volume being used as volume of secretion. A 1 ml. or less aliquot is then removed and placed in a 50 ml. beaker containing 10 ml. of distilled water. This sample is then titrated using 0.01N NaOH to pH 7.0 using a Beckman zeromatic pH meter. Volume, titratable acidity (meq/L) and total acid output (μ eq/hour) are recorded. Percent inhibition is determined by comparison with the appropriate control. Groups of three rats were used. All compounds are administered in vehicle (0.5% methocel, 0.4% Tween 80, saline) at a constant volume of 1 ml./100 gram rat. Samples were sonicated with care to prevent overheating.

The test system of the next assay is gerbil ascending colon. Kind of assay: contraction of gerbil colon by dl-PGE1. As to conditions: final concentration of 200 ng./ml.; preliminary tests.

Values after ≈ are worked out from the molar mass of the structure shown.

As to `CCCCCC/C=C/[C@H]1CCC(=O)[C@@H]1CCCCCCC(=O)NCCCN(C)C` (relative stereo), the minimal effective dose (in general, the smallest amount tested that counted as effective) with diastolic blood pressure stood at 0.4 mg/kg. In addition, the MIC came out at 100 µg/mL (≈ 246 µM) in [1]; 100 µg/mL (≈ 246 µM) in assay [2]; 100 µg/mL (≈ 246 µM) in assay [3]; 25 µg/mL (≈ 61.5 µM) in [4]; 100 µg/mL (≈ 246 µM) in the assay with Trichophyton rubrum E 97; 10 µg/mL (≈ 24.6 µM) in assay [5]. Moreover, the MIC in assay [6] turned out to be 50 µg/mL (≈ 123 µM); in assay [7], 10 µg/mL (≈ 24.6 µM). Further, the “Percent Inhibition of gastric acid secretion” value in the assay on gastric acid secretion is given as 76%. Also, in [8], the “ID50 vs. 20 ng. of PGE1 /ml.” value was determined as 0.5 µg/mL.

For `CCCCCC/C=C/[C@H]1CCC(=O)[C@@H]1CCCCCCC(=O)N(C(=O)Nc1ccc(N(C)C)cc1)c1ccc(N(C)C)cc1` (relative stereo) [4,4'-bis(dimethylamino)-N-{7-[trans-2-(1-octenyl)-5-oxocyclopentyl]-heptanoyl}carbanilide], in assay [9], the “% Inhibition after 120 minutes, Total Acid Output” value was 72% and the “% Inhibition after 120 minutes, Total Acidity” value is recorded as 60%.

On to `CCCCCC/C=C/[C@H]1CCC(=O)[C@@H]1CCCCCCC(=O)NN(C)C` (relative stereo) [N-(dimethylamino)-9-oxo-13-trans-prostenamide], for which, in the assay on diastolic blood pressure, the minimal effective dose is 2 mg/kg. For the same compound, the MIC in assay [1] was found to be 25 µg/mL (≈ 68.6 µM); in assay [2] it was 25 µg/mL (≈ 68.6 µM); in assay [3] it was 25 µg/mL (≈ 68.6 µM); in [4], 25 µg/mL (≈ 68.6 µM); with Trichophyton rubrum E 97 it was 25 µg/mL (≈ 68.6 µM); in assay [5] it was 10 µg/mL (≈ 27.4 µM). The MIC was determined as 25 µg/mL (≈ 68.6 µM) in assay [6] and 10 µg/mL (≈ 27.4 µM) in [7]. Besides, the “Percent Inhibition of gastric acid secretion” value in the assay with gastric acid secretion came out at 58%. For the same compound, the “ID50 vs. 20 ng. of PGE1 /ml.” value in assay [8] was found to be 0.5 µg/mL.

For `CCCCCC/C=C/[C@H]1CCC(=O)[C@@H]1CCCCCCC(=O)Nc1cccnc1` (relative stereo) [N-(pyridyl-3)-9-oxo-13-trans-prostenamide], the minimal effective dose in the assay on diastolic blood pressure fell in the range of 2 to 8 mg/kg. In addition, the MIC in assay [7] was determined as 5 µg/mL (≈ 12.5 µM). Moreover, in [9], the “% Inhibition after 120 minutes, Total Acid Output” value came to 54% and the “% Inhibition after 120 minutes, Total Acidity” value is recorded as 30%.

For `CCCCC[C@H](O)/C=C/[C@H]1[C@H](O)CC(=O)[C@@H]1CCCCCCC(=O)O` (relative stereo) [dl-PGE1, prostaglandin-E1], in the assay with gerbil ascending colon, the muscle contraction entry is given as “maximal muscle contraction”.
